Results on 3 compounds are retold here after US20110229892A1, “METHOD FOR PREDICTING A PATIENT'S RESPONSIVENESS TO ANTI-FOLATE THERAPY” (priority 2008, published 2011).

One data set relates to CEM-MTX^R10 cells. Briefly: Antifolate growth inhibition assay (XTT), MTX-resistant subline. In kind it is cell-based. Conditions: Homo sapiens, 72 h, read-out: IC50 growth inhibition. On the procedure:
(§1) Tissue Culture: The human T-cell lymphocytic leukemia lines CCRF-CEM and Molt-4 as well as their antifolate-resistant sublines CEM-MTX^R5P, CEM-MTX^R10, CEM-7OH MTX and Molt-4-7OH MTX were maintained in RPMI-1640 medium (GIBCO) containing 2.3 μM folic acid supplemented with 10% fetal bovine serum, 2 mM glutamine, 100 units/ml penicillin G and 100 μg/ml streptomycin sulfate (Biological Industries, Beth-Haemek, Israel). The MTX-resistant sublines MTX^R5P and MTX^R10 were established by exposure of parental CCRF-CEM cells to 6 cycles each of 24 hr pulse of 5 or 10 μM MTX, respectively (Sigma) as follows: after an initial 24 hr pulse exposure of parental CCRF-CEM cells to 5 or 10 μM MTX at 37° C., cells were washed once with drug-free growth medium, adjusted to 3×10^5 cells/ml and allowed to grow for 1-2 weeks. Thereafter, a maintenance treatment of 24 hr pulses of MTX was performed once a month. CEM-7OH MTX and Molt-4-7OH MTX were established and maintained as previously described [Fotoohi K, et al., Blood. 2004; 104:4194-4201].
(§2) Antifolate growth inhibition assay: Parental cells and their antifolate-resistant sublines as well as FPGS-transfected cells were first grown in antifolate-free growth medium for 5-7 cell doublings. Thereafter, cells were seeded in 96-well plates (3×10^4/well) in growth medium (100 μl/well) containing various concentrations of the different antifolates (e.g. MTX, ZD1694 and ZD9331). After 3 days of incubation at 37° C., viable cell numbers were determined using the Cell Proliferation Kit (XTT) (Biological Industries). Percent inhibition of cell growth was calculated relative to untreated controls. Results presented are means of at least three independent experiments.
For orientation: Tetrazolium dyes change colour on reduction, which living cells bring about.

The next data set addresses T1, RFC (SLC19A1) (Homo sapiens, UniProt P41440).
T1 construct: endogenous in cells; host or cells: CCRF-CEM parental cells and antifolate-resistant sublines (MTX^R5P, CEM/MTX^R10)
T1 sequence (P41440 1-591): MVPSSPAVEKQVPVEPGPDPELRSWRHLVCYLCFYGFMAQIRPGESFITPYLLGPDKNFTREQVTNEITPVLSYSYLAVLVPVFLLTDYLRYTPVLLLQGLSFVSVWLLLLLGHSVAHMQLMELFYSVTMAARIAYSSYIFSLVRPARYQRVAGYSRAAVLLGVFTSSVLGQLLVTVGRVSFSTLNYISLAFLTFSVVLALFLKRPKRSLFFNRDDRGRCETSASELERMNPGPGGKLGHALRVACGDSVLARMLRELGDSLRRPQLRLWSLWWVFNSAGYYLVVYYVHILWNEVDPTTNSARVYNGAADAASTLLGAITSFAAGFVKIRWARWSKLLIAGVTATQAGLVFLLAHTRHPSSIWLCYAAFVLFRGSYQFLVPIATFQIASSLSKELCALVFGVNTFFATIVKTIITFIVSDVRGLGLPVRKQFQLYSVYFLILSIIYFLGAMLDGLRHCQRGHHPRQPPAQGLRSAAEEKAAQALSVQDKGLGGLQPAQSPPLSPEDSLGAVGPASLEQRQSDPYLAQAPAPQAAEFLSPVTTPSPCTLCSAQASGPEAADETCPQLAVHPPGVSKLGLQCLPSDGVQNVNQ
Kind of data set: [^3H]MTX transport assay. The data set is classed as cell-based. As to conditions: 2 μM [3H]MTX, 3 min, 37° C. The procedure: [^3H]MTX transport assay: [^3H]MTX influx rates were determined as previously described [Jansen Get al., J Biol Chem. 1990; 265:18272-18277]. Briefly, cells (2×10^7) were washed with ice-cold HBS (20 mM HEPES, 140 mM NaCl, 5 mM KCl, 2 mM MgCl2, and 5 mM glucose, at pH 7.4) and incubated at 37° C. for 3 min in HBS containing 2 μM [3′,5′,7-^3H]-Methotrexate (0.555 TBq/mmol; […]; Moravek Biochemicals, Brea, Calif.). Transport controls contained a 500-fold excess (1 mM) of unlabeled MTX. Transport was stopped by the addition of 10 ml of ice-cold HBS. Then, the cell suspension was centrifuged, washed with ice-cold HBS and suspended in water for scintillation counting.

The test system of a further data set is CEM-MTX^R5P cells. Briefly: Antifolate growth inhibition assay (XTT), MTX-resistant subline. In kind it is cell-based, human. As to conditions: for IC50: Homo sapiens, 72 h, read-out: IC50 growth inhibition. The procedure:
as §1, §2

The next data set deals with CCRF-CEM WT cells. Briefly: Antifolate growth inhibition assay (XTT), parental cells. The data set is classed as cell-based. As to conditions: Homo sapiens, 72 h, read-out: IC50 growth inhibition. The procedure:
as §1, §2

In data set [1] the test system is MTX^R10 cells overexpressing normal FPGS (pcDNA3/hFPGS transfectant). Kind of data set: Antifolate cytotoxicity in FPGS-transfected cells. Conditions: MTX^R10 cells transfected with normal FPGS, compared with parental cells. The data set is classed as cell-based, human. On the procedure:
as §2
Expression Vectors: pcDNA3/hFPGS harboring the full-length human FPGS cDNA was provided. […]
Stable Transfections with hFPGS Expression Constructs: Exponentially growing cells (i.e. CCRF-CEM and)CEM-MTX^R10) were harvested by centrifugation and stably transfected by electroporation (1000 μF, 234V) with 10 μg of the vectors pcDNA3.1, pIRES2-EGFP, pcDNA3/hFPGS or pIRES/FPGSΔexon10. […] Stable transfectants obtained after 4 weeks of G-418 selection were analyzed for FPGS mRNA levels by Northern blots as detailed below and used for further analyses.

Where [2] appears, read: CEM-MTX^R10, 3 days incubation, XTT.
[3] abbreviates: CEM-MTX^R5P, 3 days incubation, XTT.
[4] abbreviates: CCRF-CEM WT, 3 days incubation, XTT.
The mark [5] stands for this setting: MTX^R5P cells vs parental cells.

Like-named read-outs stand apart in the source and are kept apart here. Bounds are passed on as bounds.

Broadly, the IC50 is the point on the concentration scale where inhibition reaches its midpoint. As to `CN(Cc1cnc2nc(N)nc(N)c2n1)c1ccc(C(=O)N[C@@H](CCC(=O)O)C(=O)O)cc1` [MTX, methotrexate], the half-maximal inhibitory concentration (IC50) with CEM-MTX^R10 cells (setting [2]) turned out to be 28.2 ± 2.9 nM; with CEM-MTX^R5P cells (setting [3]), 23.1 ± 2 nM; in the data set with CCRF-CEM WT cells (setting [4]), 25.7 ± 2.1 nM. The “MTX Influx” value at RFC (SLC19A1) (CCRF-CEM WT (parental reference)) is recorded as 100%; on RFC (SLC19A1) (CEM-MTX^R5P, relative to parental cells), 50 ± 5%; on RFC (SLC19A1) (CEM-MTX^R5P, relative to parental cells, listed as [^3H]MTX), 50%; on RFC (SLC19A1) (CEM-MTX^R10, relative to parental cells) it was 91 + 6%.

For `Cc1nc2ccc(CN(C)c3ccc(C(=O)N[C@@H](CCC(=O)O)C(=O)O)s3)cc2c(=O)[nH]1` [ZD1964, raltitrexed], in data set [1], the “sensitivity after ectopic overexpression of normal FPGS” value is recorded as “fully restored parental cell sensitivity”. Also, the IC50 in the data set on CEM-MTX^R10 cells (setting [2]) is 110 ± 9.8 nM; in the data set with CEM-MTX^R5P cells (setting [3]), over 300000 nM; in the data set on CCRF-CEM WT cells (setting [4]) it was 6.06 ± 0.42 nM. In the data set on CEM-MTX^R5P cells (setting [5]), the “resistance relative to parental CCRF-CEM cells” value was 50,000 fold.

As for `C#CCN(Cc1cc2c(=O)[nH]c(C)nc2cc1C)c1ccc(C(=O)N[C@@H](CCc2nnn[nH]2)C(=O)O)c(F)c1` [ZD9331, plevitrexed], the IC50 in the data set with CEM-MTX^R10 cells was determined as 40.8 ± 4.1 nM; in the data set on CEM-MTX^R5P cells, 13.9 ± 1.7 nM; in the data set with CCRF-CEM WT cells (CCRF-CEM), 28.6 ± 2.3 nM. The “increased sensitivity relative to parental cells” value in the data set with CEM-MTX^R5P cells (setting [5]) is listed as 2 fold.
